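Values below derive from 48-hour exposures of cells grown in 96-well plates, with endpoints linearly interpolated between the two concentrations bracketing the appropriate inhibition level. GI50 = concentration required for 50% inhibition of growth. TGI denotes the concentration required for complete inhibition of growth.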
Legend:
Experiment in all cases: NCI anticancer screen, dose series, 48 h
CCRF-CEM leukemia = test system: CCRF-CEM leukemia
EKVX NSCLC = test system: EKVX NSCLC
HCT-116 colon = test system: HCT-116 colon
IGROV1 ovarian = test system: IGROV1 ovarian
NCI-H522 lung = test system: NCI-H522 lung
OVCAR-8 ovarian = test system: OVCAR-8 ovarian
SF-295 CNS = test system: SF-295 CNS
SK-MEL-2 melanoma = test system: SK-MEL-2 melanoma
SNB-75 CNS = test system: SNB-75 CNS
RPMI-8226 leukemia = test system: RPMI-8226 leukemia

SMILES	GI50 (CCRF-CEM leukemia) [µM]	TGI (CCRF-CEM leukemia) [µM]	GI50 (EKVX NSCLC) [µM]	TGI (EKVX NSCLC) [µM]	GI50 (HCT-116 colon) [µM]	TGI (HCT-116 colon) [µM]	GI50 (IGROV1 ovarian) [µM]	TGI (IGROV1 ovarian) [µM]	GI50 (NCI-H522 lung) [µM]	TGI (NCI-H522 lung) [µM]	GI50 (OVCAR-8 ovarian) [µM]	TGI (OVCAR-8 ovarian) [µM]	GI50 (SF-295 CNS) [µM]	TGI (SF-295 CNS) [µM]	GI50 (SK-MEL-2 melanoma) [µM]	TGI (SK-MEL-2 melanoma) [µM]	GI50 (SNB-75 CNS) [µM]	TGI (SNB-75 CNS) [µM]	TGI (RPMI-8226 leukemia) [µM]	GI50 (RPMI-8226 leukemia) [µM]
CO[C@H]1/C=C/O[C@@]2(C)Oc3c(C)c(O)c4c(O)c(c(/C=N/N5C(C)CN(Cc6ccc(C#N)cc6)CC5C)c(O)c4c3C2=O)NC(=O)/C(C)=C\C=C\[C@H](C)[C@H](O)[C@@H](C)[C@@H](O)[C@@H](C)[C@H](OC(C)=O)[C@@H]1C (stereo partly drawn)	2.12	12.3	4.26	39.4	5.41	12.7	7.61	16.4	6.22	22	10.4	38.9	2.88	12.2	7.92	15.9	7.25	18.5		
Oc1ccc(Br)cc1C=NC1CCCCC1		> 100		> 100		48.8		> 100		> 100		> 100		> 100		74.2			> 100	
O=C(NC1CCCCC1)NC12CC3CC(CC(F)(C3)C1)C2		> 100		> 100		> 100		> 100		> 100		> 100				> 100		> 100	> 100	
[Mn+3].[O-][Cl+3]([O-])([O-])O.[O-]c1ccccc1C=NCCN1CC1.[O-]c1ccccc1C=NCCN1CC1			41.3	> 100	15.1	> 100	20.9	62.3	27.8	> 100	17.8	> 100	18.6	58	48.5	> 100	25.6	70.1	9.91	1.36
Cc1ccc([N+](=O)[O-])cc1NC(=O)C(=O)Cc1nc2ccc(C(=O)c3ccccc3)cc2[nH]c1=O		> 100		> 100		> 100		> 100		> 100		> 100		> 100				> 100		
O=C(N/C(=C\c1cccc([N+](=O)[O-])c1)c1nc2c3c(ccc2[nH]1)C(=O)c1ccccc1C3=O)c1ccccc1				> 100		> 100				> 100		> 100				> 100		> 100	> 100	
COc1ccc(NC(=O)c2ccc(C(F)(F)F)nc2Nc2ccc(Cl)cc2C)cc1Cl	3.84	17.4	3.47	16.5	3.08	13.1			3.53	15.4	7.67	24.3	2.32	12.7	7.33	21	6.47	23.9	4.88	2.07
CCOc1ccc(Nc2ccnc3cc(Cl)ccc23)cc1	> 100	> 100			35	> 100	> 100	> 100	26.4	86.6	79.9	> 100	34.4	> 100	> 100	> 100	17	51.2	> 100	> 100
CCCCCCCCCCCCCCCCCC1=NC(C)(C)CN1C(C)(C)CO	1.39	4.88	2.21	14	0.559	2.01	1.08	2.6	1.63	3.25					1.83	3.51	1.47	3.13	4.37	1.8
CC1=NC(C)=C(/C(C)=N/NC(=O)c2ccccc2O)C(C)/C1=C(/C)NNC(=O)c1ccccc1O (stereo not drawn)				48.4		48.3		33		43.6		50.5						93.6		
CCOC(=O)NC(=O)c1cn(C2CCCCC2)c(=O)n(C)c1=O		> 100				> 100		> 100		> 100		> 100		> 100		> 100		> 100	> 100	
O=C1/C(=C/c2ccc(Cl)cc2)N=C(c2ccccc2)N1c1cc(C(F)(F)F)ccc1Cl			21.9	> 100	16.8	48.3	18.5	85.7	20.1	76	28.6	> 100	17.2	48.8	17.5	45.4	18.6	78.7	52.1	21.5
Nc1ccc(C(=O)CC2(O)C(=O)Nc3ccccc32)cc1 (stereo not drawn)				> 100		> 100		> 100		> 100		> 100		> 100		> 100		> 100	> 100	
COc1ccc2c(c1)C(=O)/C(=C/c1ccc(O)cc1)O2	1.63	3.54	18.6	> 53.5	4.42	18.2	6.87	20.8	1.86	3.75	27.2	> 75	23.6	> 66.9			8.82	> 32.3	3.49	1.55
COc1cc(/C=C2\C[C@H]3[C@@H]4CC=C5C[C@@H](O)CC[C@]5(C)[C@H]4CC[C@]3(C)[C@H]2O)ccc1OCCN1CCCCC1	0.37	1.88	1.67	9.62	0.254	0.494	2.35	> 26.3	1.6	> 50	1.57	> 12.1	0.906	1.75	5	> 50			1.98	0.776
CN1CCN(c2ccncc2S(=O)(=O)N2CCN(C)CC2)CC1				> 100		> 100		> 100		> 100		> 100		> 100		> 100		> 100	> 100	

Reference: PubChem BioAssay (NCI)
